Assay results published in publication PMC467046, “Computational and spectroscopic insight into the binding of citral with human transferrin: Targeting neurodegenerative diseases” (Heliyon, 2024).

Target: T1, human transferrin (htf) (Homo sapiens, UniProt P02787)
T1 construct: gene TF; single-chain glycoprotein of 679 amino acids (mature)
Assay: intrinsic fluorescence quenching, modified Stern-Volmer plot
Assay type: binding
Details: 298 K; 4 uM htf, 0-8 uM citral; excitation 280 nm; double-log
From the text: intrinsic fluorescence quenching, modified Stern-Volmer plot on human transferrin (htf)

T1 sequence (P02787 20-698): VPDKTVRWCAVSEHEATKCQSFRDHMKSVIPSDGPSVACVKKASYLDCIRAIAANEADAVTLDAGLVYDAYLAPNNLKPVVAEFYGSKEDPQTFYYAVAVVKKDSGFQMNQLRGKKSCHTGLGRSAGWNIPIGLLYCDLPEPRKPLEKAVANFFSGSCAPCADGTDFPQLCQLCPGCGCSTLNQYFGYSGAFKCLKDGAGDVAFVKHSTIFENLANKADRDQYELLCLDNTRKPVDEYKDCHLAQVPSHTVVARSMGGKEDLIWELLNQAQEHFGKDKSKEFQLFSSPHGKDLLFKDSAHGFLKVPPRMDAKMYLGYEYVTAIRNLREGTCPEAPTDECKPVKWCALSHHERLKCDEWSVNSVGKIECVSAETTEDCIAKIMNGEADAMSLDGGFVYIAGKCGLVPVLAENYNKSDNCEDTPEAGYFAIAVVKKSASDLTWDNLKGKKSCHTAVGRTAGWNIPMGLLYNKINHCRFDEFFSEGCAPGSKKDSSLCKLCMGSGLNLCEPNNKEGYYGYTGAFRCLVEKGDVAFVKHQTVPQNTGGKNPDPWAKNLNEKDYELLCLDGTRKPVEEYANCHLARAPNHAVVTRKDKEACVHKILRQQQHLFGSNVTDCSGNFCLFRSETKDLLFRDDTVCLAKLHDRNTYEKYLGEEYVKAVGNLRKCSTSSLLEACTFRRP

- K 10^6M^-1: 0.82 10^6 M^-1
Structure (SMILES): CC(C)=CCCC(C)=CC=O [citral]
